Source: US8552015B2, “Quinazolinone derivatives and their use as CB agonists” (Novartis AG, priority 2002, dated 2013)
Where a name gives a salt, the structure may show the parent alone.

Experiments:
human CB2 receptors = target: T1, human CB2 receptors (Homo sapiens, UniProt P34972); assay: Test II: CB2 receptor binding assay ([3H]CP55940 displacement); settings: membranes from CHOK1 cells, Ki from IC50 by Cheng-Prussoff
T1 construct: purchased Receptor Biology, Beltsville, Md; host or cells: CHOK1 cells (transfected), membrane preparation
T1 sequence (P34972 whole entry): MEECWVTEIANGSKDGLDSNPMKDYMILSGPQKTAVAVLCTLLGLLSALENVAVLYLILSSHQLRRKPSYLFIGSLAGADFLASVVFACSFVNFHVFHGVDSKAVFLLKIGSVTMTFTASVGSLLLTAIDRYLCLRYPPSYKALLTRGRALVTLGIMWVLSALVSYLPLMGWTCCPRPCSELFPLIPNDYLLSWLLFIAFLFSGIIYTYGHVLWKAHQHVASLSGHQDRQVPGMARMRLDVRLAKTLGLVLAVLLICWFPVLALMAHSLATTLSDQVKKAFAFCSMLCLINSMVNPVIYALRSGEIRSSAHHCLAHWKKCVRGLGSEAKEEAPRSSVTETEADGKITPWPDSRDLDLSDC
Method: (§1) The assay mixture comprises 75 μL of membrane suspension [membranes from CHOK1 cells transfected with human CB2 receptors from Receptor Biology, Beltsville, Md.; 133 μg/mL in assay buffer (50 mM Tris-HCl, 2.5 mM EDTA, 5 mM MgCl2 5 mg/mL BSA, pH7.4), approx, 10 μg/well)], 25 μL WGA-YS beads [Yttrium silicate beads coated with wheat germ agglutinin, Amersham (40 mg/mL, 1 mg/well)), 50 μL test compound in 4% DMSO and 50 μL radioligand {[^3H]CP55940 (180 Ci/mmol), New England Nuclear; final concentration 0.125 nM, in assay buffer}. All components are mixed, shaken at room temperature for 2 hours, then counted on a Topcount. Non-saturable binding is measured in the presence of 10 μM (R)-(+)-[2,3-d]hydro-5-methyl-3-[(4-morpholinyl)methyl]pyrrolo[1,2,3-de]-1,4-benzoxazin-6-yl](1-naphthalenyl)methanone (WIN55,212-2, Tocris).
The IC50 values are calculated in ORIGIN using a logistic fit. Ki values are calculated from the IC50 values using the Cheng-Prussoff equation (Ki=IC50/(1+([L]/Kd)) where [L] is the ligand concentration.

[1] = system: neuropathic pain induced by partial ligation of the sciatic nerve; assay: Test III: Neuropathic pain model (partial ligation of the sciatic nerve, mechanical hyperalgesia); format: in vivo, Wistar-rats; settings: p.o.; dose necessary to produce 50% reversal of hyperalgesia
From the text: Activity specifically as analgesic agents may be confirmed in accordance with standard test methods, e.g. as described in the following test. • Test III: Neuropathic Pain Model
Hyperalgesia is examined in the model of neuropathic pain induced by partial ligation of the sciatic nerve as described by Seltzer et al. (1990). Briefly, Wistar-rats (120-140 g) are anaesthetised, the left sciatic nerve exposed at mid-thigh level through a small incision and ⅓ to ½ of the nerve thickness tightly ligated within a 7.0 silk suture. The wound is closed with a single muscle suture and skin clips and dusted with Aureomycin antibiotic powder. The animals are allowed to recover and used 12-15 days following surgery.
Mechanical hyperalgesia is assessed by measuring paw withdrawal thresholds to an increasing pressure stimulus placed onto the dorsal surface of the paw using an analgesymeter (Ugo-Basile, Milan) with a cut-off of 250 g. Withdrawal thresholds are measured on both the ipsilateral (ligated) and contralateral (unligated) paw prior to (predose) and then up to 6 h following drug or vehicle administration. Data are expressed as withdrawal threshold (g) and percentage reversal of hyperalgesia calculated according to the following formula:
[formula] • Potency is expressed as D50 value, i.e. the dose of compound necessary to produce 50% reversal of hyperalgesia.

hCB1 receptor [2] = target: T2, hCB1 receptor (Homo sapiens, UniProt P21554); assay: Test IV: CB1 functional assay ([35S]GTPγS binding); format: biochemical; parameters: purchased Receptor Biology Inc RBhCB1 382200; host or cells: HEK293 cells, membrane preparation; settings: hCB1 receptor membrane (HEK293 cells)
T2 sequence (P21554 whole entry): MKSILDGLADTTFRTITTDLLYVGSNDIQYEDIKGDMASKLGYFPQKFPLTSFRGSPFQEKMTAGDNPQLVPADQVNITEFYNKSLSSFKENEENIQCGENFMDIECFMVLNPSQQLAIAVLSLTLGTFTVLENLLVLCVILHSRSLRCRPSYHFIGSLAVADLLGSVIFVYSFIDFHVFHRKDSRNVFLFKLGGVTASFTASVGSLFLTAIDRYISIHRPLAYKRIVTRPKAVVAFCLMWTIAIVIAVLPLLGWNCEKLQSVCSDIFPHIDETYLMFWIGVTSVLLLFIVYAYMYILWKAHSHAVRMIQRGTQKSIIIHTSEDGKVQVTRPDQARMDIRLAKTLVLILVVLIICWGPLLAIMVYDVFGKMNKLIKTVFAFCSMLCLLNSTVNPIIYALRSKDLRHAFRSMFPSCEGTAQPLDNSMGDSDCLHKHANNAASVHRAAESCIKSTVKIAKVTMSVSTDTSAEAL
Method: G-protein activation is used as a functional measure of receptor-ligand association for G-protein coupled receptors. The basic mechanism behind G-protein activation is the exchange of bound guanosine 5′-diphosphate (GDP) for guanosine 5′-triphosphate (GTP). Using a radioactive, non-hydrolyzable form of GTP, such as guanosine 5′-O-(3-[^35S]thiophosphate ([^35S]GTPγS), G-protein activation is assessed by measuring the accumulation of membrane-bound radioactivity in response to receptor activation.
The plate is sealed with a topseal A cover and vortexed for 2 minutes. The plate is incubated at room temperature for 60 min., centrifuged (Beckman 6JB) at 800 g for 5 minutes and counted on a Topcount for 3 minutes.
Non-specific binding is determined using 10 μM GTPγS, and this is subtracted from all values. Basal binding is assayed in the absence of agonist and in the presence of GDP. The stimulation by agonist is defined as a percentage increase above basal levels, i.e., {[cpm(agonist)−cpm(no agonist)]/cpm(no agonist)}×100
Data are reported as mean ±S.E.M. of one to six experiments performed in triplicate. Non-linear regression analysis of concentration-response data is performed using Origin version 5, (logistics algorithm; Microcal Software Inc. MA, USA) to calculate percentage maximal effect (Emax, %) and EC50 (nM) values. […]

hCB1 receptor [3] = target: T2, hCB1 receptor; assay: Test I: CB1 receptor binding assay ([3H]CP55940 displacement); parameters: purchased Receptor Biology, Beltsville, Md; host or cells: HEK293 cells (transfected), membrane preparation; settings: membranes from HEK293 cells, Ki from IC50 by Cheng-Prussoff
Method: More particularly the agents of the invention are active at the human CB1 and CB2 receptor.
as §1, with “HEK293” for “CHOK1”, “CB1” for “CB2”, “mg/well)],” for “mg/well)),”, “(R)-(+)-[2,3-dihydro-5-methyl-3-[(4-morpholinyl)methyl]pyrrolo[1,2,3-de]-1,4-benzoxazin-6-yl](1-naphthalenyl)methanone” for “(R)-(+)-[2,3-d]hydro-5-methyl-3-[(4-morpholinyl)methyl]pyrrolo[1,2,3-de]-1,4-benzoxazin-6-yl](1-naphthalenyl)methanone”
The IC50 values are calculated in ORIGIN using a logistic fit. Ki values are calculated from the IC50 values using the Cheng-Prussoff equation (Ki=IC50/(1+([L]/Kd)) where [L] is the ligand concentration. • Test II: CB2 Receptor Binding Assay

melting point	SMILES	Ki (human CB2 receptors)	D50 value in the neuropathic pain model of test III [1]	EC50 (hCB1 receptor [2])	Ki (hCB1 receptor [3])
	CCOC(=O)c1c(C)cc2nc(COC(=O)NCCO)n(-c3ccccc3S(=O)(=O)NC)c(=O)c2c1C [Example 2, 2-(2-Hydroxy-ethylcarbamoyloxymethyl)-5,7-dimethyl-3-(2-methylsulfamoyl-phenyl)-4-oxo-3,4-dihydro-quinazoline-6-carboxylic acid ethyl ester]	11 ± 3.5 nM	0.5 mg/kg	132 ± 19 nM	34 ± 3 nM
126 to 130 °C	CCNC(=O)OCc1nc2cc(C)c(C(=O)OCC)c(C)c2c(=O)n1-c1ccccc1S(=O)(=O)NC (as salt: hydrochloride)				
